Where a name gives a salt, the structure may show the parent alone. Bounds are passed on as bounds.

The target in one assay is RON (human) (Homo sapiens, UniProt Q04912). Put plainly: RON (human)-Km of ATP AlphaScreen kinase assay. The following applies: biochemical, ATP at Km. How it is done: RON (human)-Km of ATP: RON assay is performed in a 384 well assay containing 200 ng/μL biotinylated poly(Glu, Tyr), 0.334 mM vanadate, desired concentration of ATP optimized for the enzyme in assay buffer (50 mM HEPES (pH=7.4), 12.5 mM MgCl2 and 1% glycerol). Desired compound is added in a final concentration of 1% DMSO with control being vehicle of DMSO alone. RON is diluted to the optimized (on a lot-by-lot basis) concentration in an enzyme diluent buffer (50 mM HEPES pH=7.4, 12.5 mM MgCl2 and 1% glycerol, 0.03% Brij35, 0.3 mM EGTA, 1 mM DTT, and 0.003% BSA). Enzyme is added to initiate the reaction and incubated for 30 min at RT. In subdued light, appropriate amount of PT66 donor and acceptor beads (diluted 1:260 from manufacturer's provision in a 25 mM Tris HCl (pH=7.5), 200 mM NaCl, 100 mM EDTA, 0.3% BSA buffer) are added to the wells. The plates, incubated for 1 h, are read on an AlphaQuest plate reader.
Sequence of RON (human) (Q04912 25-1400): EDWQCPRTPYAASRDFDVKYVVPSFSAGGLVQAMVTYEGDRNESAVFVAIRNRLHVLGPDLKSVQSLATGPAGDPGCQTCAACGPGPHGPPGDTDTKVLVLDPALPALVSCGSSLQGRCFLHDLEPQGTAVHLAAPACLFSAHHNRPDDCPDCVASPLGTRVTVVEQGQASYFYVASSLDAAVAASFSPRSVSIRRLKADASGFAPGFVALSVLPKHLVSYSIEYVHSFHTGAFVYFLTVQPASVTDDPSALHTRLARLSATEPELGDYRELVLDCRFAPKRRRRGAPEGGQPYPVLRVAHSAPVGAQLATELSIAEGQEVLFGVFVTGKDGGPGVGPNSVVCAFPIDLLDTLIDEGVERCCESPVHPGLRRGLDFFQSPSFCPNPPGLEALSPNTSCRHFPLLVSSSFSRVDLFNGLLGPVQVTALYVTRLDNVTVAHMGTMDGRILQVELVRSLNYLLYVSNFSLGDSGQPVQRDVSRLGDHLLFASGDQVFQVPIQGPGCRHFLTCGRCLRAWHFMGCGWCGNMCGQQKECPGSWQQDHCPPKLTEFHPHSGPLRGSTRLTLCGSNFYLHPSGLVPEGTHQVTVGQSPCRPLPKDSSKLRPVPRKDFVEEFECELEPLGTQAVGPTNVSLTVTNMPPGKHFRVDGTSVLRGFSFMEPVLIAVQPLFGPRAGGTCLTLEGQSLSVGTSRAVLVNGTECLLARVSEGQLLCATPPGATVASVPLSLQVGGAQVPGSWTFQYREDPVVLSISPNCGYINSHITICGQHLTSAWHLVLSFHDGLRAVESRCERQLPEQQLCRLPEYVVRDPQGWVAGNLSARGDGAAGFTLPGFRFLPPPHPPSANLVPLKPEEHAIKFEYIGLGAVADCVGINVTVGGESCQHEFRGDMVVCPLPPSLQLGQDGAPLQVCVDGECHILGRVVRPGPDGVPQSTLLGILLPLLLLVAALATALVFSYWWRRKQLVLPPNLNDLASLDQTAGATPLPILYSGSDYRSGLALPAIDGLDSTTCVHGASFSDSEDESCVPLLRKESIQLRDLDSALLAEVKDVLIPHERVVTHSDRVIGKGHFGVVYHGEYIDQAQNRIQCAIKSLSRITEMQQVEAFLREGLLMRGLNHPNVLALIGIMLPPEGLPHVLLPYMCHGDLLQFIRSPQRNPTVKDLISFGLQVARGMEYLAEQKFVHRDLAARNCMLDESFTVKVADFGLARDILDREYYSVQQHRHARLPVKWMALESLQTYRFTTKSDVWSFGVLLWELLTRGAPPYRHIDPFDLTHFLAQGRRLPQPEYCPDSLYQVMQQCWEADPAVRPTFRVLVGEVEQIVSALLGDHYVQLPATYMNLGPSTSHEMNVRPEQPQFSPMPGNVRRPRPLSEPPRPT

A further assay concerns the target MET (human) (Homo sapiens, UniProt P08581). Put plainly: MET (human)-Km of ATP AlphaScreen kinase assay. The note with it: biochemical, ATP at Km. How it is done:
MET (human)-Km of ATP: MET assay is performed in a 384 well assay containing 200 ng/μL biotinylated poly(Glu, Tyr), 0.334 mM vanadate, desired concentration of ATP optimized for the enzyme in assay buffer (50 mM HEPES (pH=7.4), 5 mM MgCl2, 5 mM MnCl2, and 1% glycerol). Desired compound is added in a final concentration of 1% DMSO with control being vehicle of DMSO alone. MET is diluted to the optimized concentration (optimized on a lot-by-lot basis) in an enzyme diluent buffer (50 mM Tris pH=7.4, 1% glycerol, 0.03% Brij35, 0.24 mM EGTA, 1 mM DTT, and 0.003% BSA). Enzyme is added to initiate the reaction and incubated for 60 min at RT. In subdued light, appropriate amount of PT66 donor and acceptor beads (diluted 1:260 from manufacturer's provision in a 25 mM Tris HCl (pH=7.5), 400 mM NaCl, 100 mM EDTA, 0.3% BSA buffer) are added to the wells. The plates, incubated for 1 h, are read on an AlphaQuest plate reader
In general terms: Alpha assays give light when donor and acceptor beads are brought close together.

Sequence of MET (human) (P08581 25-1390): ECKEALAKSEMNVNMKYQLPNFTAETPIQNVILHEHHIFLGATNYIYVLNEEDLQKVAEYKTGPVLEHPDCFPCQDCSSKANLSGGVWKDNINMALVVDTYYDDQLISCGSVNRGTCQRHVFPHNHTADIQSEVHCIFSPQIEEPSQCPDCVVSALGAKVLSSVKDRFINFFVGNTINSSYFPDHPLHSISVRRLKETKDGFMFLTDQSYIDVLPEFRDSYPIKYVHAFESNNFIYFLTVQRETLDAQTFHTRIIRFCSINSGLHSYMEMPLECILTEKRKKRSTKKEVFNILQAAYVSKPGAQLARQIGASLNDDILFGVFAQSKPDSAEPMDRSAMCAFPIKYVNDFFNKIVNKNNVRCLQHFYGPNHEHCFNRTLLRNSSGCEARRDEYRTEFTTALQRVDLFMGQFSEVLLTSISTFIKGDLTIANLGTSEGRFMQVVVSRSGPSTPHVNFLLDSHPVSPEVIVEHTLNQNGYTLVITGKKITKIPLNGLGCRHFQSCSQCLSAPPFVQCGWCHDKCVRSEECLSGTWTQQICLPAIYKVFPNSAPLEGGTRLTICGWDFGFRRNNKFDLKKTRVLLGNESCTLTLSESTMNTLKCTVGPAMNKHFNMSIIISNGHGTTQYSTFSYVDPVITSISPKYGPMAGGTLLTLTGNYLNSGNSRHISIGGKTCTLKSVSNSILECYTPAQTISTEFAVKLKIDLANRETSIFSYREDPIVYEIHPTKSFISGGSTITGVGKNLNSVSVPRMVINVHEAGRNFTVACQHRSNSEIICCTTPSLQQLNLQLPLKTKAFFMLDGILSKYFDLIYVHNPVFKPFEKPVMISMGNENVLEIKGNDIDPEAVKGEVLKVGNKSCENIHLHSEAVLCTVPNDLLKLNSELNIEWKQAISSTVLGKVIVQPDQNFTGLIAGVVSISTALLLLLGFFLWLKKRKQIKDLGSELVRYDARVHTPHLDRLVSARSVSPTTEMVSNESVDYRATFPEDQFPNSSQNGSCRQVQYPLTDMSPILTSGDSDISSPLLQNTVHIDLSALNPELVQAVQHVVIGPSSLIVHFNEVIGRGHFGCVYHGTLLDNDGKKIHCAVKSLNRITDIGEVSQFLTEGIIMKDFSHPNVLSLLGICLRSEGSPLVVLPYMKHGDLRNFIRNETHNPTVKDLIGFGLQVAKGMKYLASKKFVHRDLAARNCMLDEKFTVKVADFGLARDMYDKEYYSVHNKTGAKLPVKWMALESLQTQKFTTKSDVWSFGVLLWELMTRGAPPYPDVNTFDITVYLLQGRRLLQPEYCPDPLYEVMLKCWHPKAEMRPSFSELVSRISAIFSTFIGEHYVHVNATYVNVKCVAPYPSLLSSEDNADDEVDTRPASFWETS

`Nc1ncc2c(ccn2Cc2ccccc2)c1-c1cc2ccccc2o1` [Example 8, [(4-Benzofuran-2-yl)-1-benzyl-1H-pyrrolo[2,3-c]pyridin-5-yl]amine]: the 50% inhibitory concentration (IC50) against RON (human) was > 20 µM.

Consider `C[C@@H](Oc1c(N)ncc2[nH]ccc12)c1c(Cl)ccc(F)c1Cl` [Example 1, 4-[(R)-1-(2,6-Dichloro-3-fluorophenyl)ethoxy]-1H-pyrrolo[2,3-c]pyridin-5-ylamine], for which the IC50 against RON (human) and against MET (human) was 5 to 20 µM in each case.

With `Nc1ncc2c(ccn2CCC2CCNCC2)c1-c1cc2ccccc2o1` [Example 10, [(4-Benzofuran-2-yl)-1-(2-piperidin-4-ylethyl)-1H-pyrrolo[2,3-c]pyridin-5-yl]amine bis-hydrochloride], the IC50 at RON (human) and against MET (human) was ≤ 5 µM each time.

For `C[C@@H](Oc1c(N)ncc2c1ccn2C)c1c(Cl)ccc(F)c1Cl` [Example 2, 4-[(R)-1-(2,6-Dichloro-3-fluorophenyl)ethoxy]-1-methyl-1H-pyrrolo[2,3-c]pyridin-5-ylamine], the IC50 on RON (human) was > 20 µM; on MET (human) it was 5 to 20 µM.

Regarding `C[C@@H](Oc1c(N)ncc2c1ccn2S(=O)(=O)c1ccccc1)c1c(Cl)ccc(F)c1Cl` [Example 6, 1-Benzenesulfonyl-4-[(R)-1-(2,6-dichloro-3-fluorophenyl)ethoxy]-1H-pyrrolo[2,3-c]pyridin-5-ylamine], the values for the IC50 at RON (human) and against MET (human) were > 20 µM and 5 to 20 µM, respectively.

As to `Nc1ncc2[nH]ccc2c1-c1cc2ccccc2o1` [Example 7, 4-Benzofuran-2-yl-1H-pyrrolo[2,3-c]pyridin-5-ylamine], the IC50 against RON (human) and on MET (human) was > 20 µM in each case.

As to `C[C@@H](Oc1c(N)ncc2c1ccn2CCC1CCNCC1)c1c(Cl)ccc(F)c1Cl` [Example 5, 4-[(R)-1-(2,6-Dichloro-3-fluorophenyl)ethoxy]-1-(2-piperidin-4-ylethyl)1H-pyrrolo[2,3-c]pyridin-5-ylamine bis-hydrochloride], the IC50 at RON (human) and against MET (human) was ≤ 5 µM throughout.

The term IC50 denotes the concentration that gives 50% inhibition.

For the origin of these results see patent publication US20120329826A1, “SUBSTITUTED-5-AMINOPYRROLO/PYRAZOLOPYRIDINES” (OSI Pharmaceuticals,. LLC, priority 2010, published 2012).
